Legend:
male Swiss mice [1] = experiment: Writhing test (acetic acid-induced abdominal contractions); assay type: in vivo; conditions: for Contractions number: 1 h before i.p. acetic acid, total contractions within 15 minutes
Experimental: Nine groups of male Swiss mice (20-25 g, Charles River), 10 animals each, received by oral administration through gastric tube (gavage) gabapentin in an amount of from 1 to 10 mg/kg or the compound of the invention (XVA, Example 1), hereinafter NO-gabapentin, in an amount of from 1 to 10 mg/kg dissolved in saline solution. One hour after administration of the compound solutions, through intraperitoneal injection the mice received a glacial acetic acid solution (0.5 ml, 0.6%). Within 15 minutes subsequent to the administration of acetic acid, in every animal the number of abdominal contractions was counted. Analysis was carried out in blind.
The results reported in Table 1 are given as the number of total contractions within the observation time (15 minutes).

male Swiss mice [2] = experiment: Paw licking test (formalin injected in paw); assay type: in vivo; conditions: for paw licking Phase I: phase I 0-15 minutes after formalin; for paw licking Phase I / paw licking Phase II: 3 mg/kg oral (gabapentin 17.5 μm/kg, NO-gabapentin 8.5 μm/kg), 1 h before formalin; for paw licking Phase II: phase II 15-30 minutes after formalin
Experimental: Three groups of male Swiss mice (20-25 g, Charles River), 10 animals each, received by oral administration as in Example F1 gabapentin in an amount of 3 mg/kg (17.5 μm/kg) or the compound of formula (XVA, Example 1), hereinafter NO-gabapentin, in an amount of 3 mg/kg (8.5 μm/kg) dissolved in saline solution. The control group received an equal volume of saline solution. One hour after administration of the compound solutions, the mice were injected with formalin in the paw (10 μl).
The formalin injection induced a biphasic reaction. In first phase (phase I, 0-15 minutes) an acute inflammation was observed; in the second phase (phase II, 15-30 minutes) a release of chemical mediators occurred as in neurophatic pain. Within 30 minutes subsequent to formalin injection, in each animal the time in seconds in which the animal licked its paw was recorded. Analysis was carried out in blind.
The results reported in Table 2 are expressed as the entire time in seconds in which paw licking in animals during the first and second phase as defined above was observed.

[3] = test system: chronic constriction injury of the rat sciatic nerve; experiment: Neuropathic pain model: chronic constriction injury of the rat sciatic nerve, vocalization threshold to paw pressure; assay type: in vivo; conditions: for Vocalization threshold to pressure in the injured paw (VTPP): 175 μmoles/kg, ip, day 14 post lesion
Text: We have tested the antinoceptive effects of compound of formula (XVA, Example 1), hereinafter NO-gabapentin, in the model of neuropathic pain constituted by the chronic constriction injury of the rat sciatic nerve. The parent compound gabapentin has been used as reference drug.
The unilateral peripheal mononeuropathy was obtained according to the method described by Bennet G J and Xie Y K, Pain (33) 1988: 87-107. Sample populations ranging from 8 to 12 rats (SD males weighting 250-300 g) for condition were used. The antinoceptive effect of the drugs was determined by measuring the vocalization threshold (VTPP) elicited by paw pressure both at the injured and at the controlateral side. The test was performed at day 14 post lesion. All compounds were tested for acute antinoceptive effects. Acute effects were determined within 60 min following a single intraperitoneal (i.p.) injection of the drugs prior to the test.
Each group of the rats received gabapentin at the dose of 30 mg/kg (175 μmoles/kg), or an equimolar dose of NO-gabapentin (175 μmoles/kg), or the same volume of vehicle (Control group). The drugs were dissolved (20 mg/mL) in vehicle containing saline: DMSO: Castor oil (68:8:24).

[4] = test system: human umbilical vein cells; experiment: NO generation by NO-donors in endothelial cells (chemiluminescence); assay type: cell-based; conditions: incubation of 100 μl nicorandil, 5 minutes
Experimental: Plated human umbilical vein cells with density of 10^3 cells/well, have been incubated 5 minutes with NO-donor scalar concentrations (1-100 μg/ml). Incubation medium (physiological solvent, i.e. Tyrode) has been then analysed to ascertain the ability to generate NO by means of: 1) nitric oxide detection by chemiluminescence, As far as chemiluminescence analysis is concerned, a 100 μl aliquot has been injected into reaction chamber of an chemiluminescence analyzer containing glacial acetic acid and potassium iodide. […] As usual in devices measuring chemiluminescence, the produced luminescence is directly proportional to the generated NO levels and can be measured by means of the suitable photomultiplier unity of an chemiluminescence analyzer. The photomultiplier turns incident light into electric voltage, that then is quantitatively registered. Referring to a calibration curve, obtained with scalar nitrite concentrations, it has been possible to quantitatively evaluate the concentration of the generated NO. For example, from incubation of […], an amount of about 10 μM NO was generated.

washed human platelets = experiment: NO generation by NO-donors in platelets (chemiluminescence); assay type: cell-based; conditions: incubation of 100 μM, 5 minutes
Experimental: Washed human platelets have been used, obtained as described by Radomski et al., (Br. J. Pharmacol. 92, 639-1987). Amounts of 0.4 ml were incubated 5 minutes with scalar NO-donor concentrations (1-100 μg/ml). […] As to the chemiluminescence assay, also in this case on the basis of a calibration curve plotted with nitrite scalar concentrations, it has been possible to quantitatively define the concentration of the generated NO. For example, after incubation of 100 μM nicorandil, an amount of 35 μM of NO was generated.

SMILES: NCC1(CC(=O)O)CCCCC1 [Gabapentin, 1-(aminomethyl)cyclohexaneacetic acid, reference compound]
- Contractions number (male Swiss mice [1]; dose 1 mg/kg oral): 32
- Contractions number (male Swiss mice [1]; dose 3 mg/kg oral): 22
- Contractions number (male Swiss mice [1]; dose 10 mg/kg oral): 27
- paw licking Phase I (male Swiss mice [2]): 85 s
- paw licking Phase II (male Swiss mice [2]): 30 s
- Vocalization threshold to pressure in the injured paw (VTPP) ([3]; 0 min post-dosing): 160 ± 10 grams
- Vocalization threshold to pressure in the injured paw (VTPP) ([3]; 5 min post-dosing): 165 ± 23 grams
- Vocalization threshold to pressure in the injured paw (VTPP) ([3]; 10 min post-dosing): 191 ± 29 grams
- Vocalization threshold to pressure in the injured paw (VTPP) ([3]; 20 min post-dosing): 250 ± 24 grams
- Vocalization threshold to pressure in the injured paw (VTPP) ([3]; 40 min post-dosing): 266 ± 26 grams
- Vocalization threshold to pressure in the injured paw (VTPP) ([3]; 60 min post-dosing): 250 ± 38 grams

SMILES: O=C(O)CC1(CNC(=O)c2ccc(CO[N+](=O)[O-])cc2)CCCCC1 [NO-gabapentin, 1-[4-(nitrooxymethyl)benzoylaminomethyl]-cyclohexaneacetic acid]
- activity in inhibiting abdominal contraction amount, compared with gabapentin (male Swiss mice [1]; 1 to 10 mg/kg oral): more active than precursor drug
- Contractions number (male Swiss mice [1]; dose 1 mg/kg oral): 24
- Contractions number (male Swiss mice [1]; dose 3 mg/kg oral): 15
- Contractions number (male Swiss mice [1]; dose 10 mg/kg oral): 15
- paw licking Phase I (male Swiss mice [2]): 50 s
- activity in inhibiting paw licking in first phase, compared with gabapentin (male Swiss mice [2]; phase I, molar dose corresponding to 50% of gabapentin): more active than the starting drug
- paw licking Phase II (male Swiss mice [2]): 60 s
- effectiveness in second phase, compared with gabapentin (male Swiss mice [2]; phase II, molar dose corresponding to 50% of gabapentin): less effective
- Vocalization threshold to pressure in the injured paw (VTPP) ([3]; 0 min post-dosing): 153 ± 10 grams
- Vocalization threshold to pressure in the injured paw (VTPP) ([3]; 5 min post-dosing): 187 ± 10 grams
- Vocalization threshold to pressure in the injured paw (VTPP) ([3]; 10 min post-dosing): 307 ± 14 grams
- Vocalization threshold to pressure in the injured paw (VTPP) ([3]; 20 min post-dosing): 325 ± 08 grams
- Vocalization threshold to pressure in the injured paw (VTPP) ([3]; 40 min post-dosing): 390 ± 11 grams
- Vocalization threshold to pressure in the injured paw (VTPP) ([3]; 60 min post-dosing): 382 ± 09 grams
- antinoceptive efficacy compared with gabapentin ([3]; equimolar dose 175 μmoles/kg i.p.): more efficacious than gabapentin

SMILES: O=C(NCCO[N+](=O)[O-])c1cccnc1 [nicorandil]
- amount of NO generated [4]: about 10 μM
- amount of NO generated (washed human platelets): 35 µM
